Test results: ChEMBL document CHEMBL1201862, “PubChem BioAssay data set” (2004)
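Step 1: Grow cells in 96-well plates. Step 2: Expose to compound for 48 hours at 5 concentrations. Step 3: Interpolate endpoints linearly; if unreached, use highest concentration. Abbreviation: GI50, concentration required for 50% inhibition of growth.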 Active and inactive are the calls of the source. No stated cut-off is given here; in the data, active = GI50 up to about 1.1 µM and inactive = higher.

Assays:
Assay in all cases: DTP human tumour cell line panel, 48 h
MCF7 = test system: MCF7
SF-268 = test system: SF-268
NCI-H522 = test system: NCI-H522
UO-31 = test system: UO-31
TK-10 = test system: TK-10
SK-MEL-5 = test system: SK-MEL-5
SF-295 = test system: SF-295
SW-620 = test system: SW-620
MDA-MB-231 = test system: MDA-MB-231
K562 = test system: K562
NCI-H23 = test system: NCI-H23
HT-29 = test system: HT-29
UACC-62 = test system: UACC-62
CAKI-1 = test system: CAKI-1
OVCAR-8 = test system: OVCAR-8
SF-539 = test system: SF-539
ACHN = test system: ACHN
SR = test system: SR
LOX IMVI = test system: LOX IMVI
SNB-75 = test system: SNB-75

Row | SMILES | GI50 (MCF7) | GI50 (SF-268) | GI50 (NCI-H522) | GI50 (UO-31) | GI50 (TK-10) | GI50 (SK-MEL-5) | GI50 (SF-295) | GI50 (SW-620) | GI50 (MDA-MB-231) | GI50 (K562) | GI50 (NCI-H23) | GI50 (HT-29) | GI50 (UACC-62) | GI50 (CAKI-1) | GI50 (OVCAR-8) | GI50 (SF-539) | GI50 (ACHN) | GI50 (SR) | GI50 (LOX IMVI) | GI50 (SNB-75)
1 | COc1cc(C2SC(=N)Nc3c2c(C)nn3C(=O)Cc2ccccc2)ccc1O (stereo not given) | > 100 µM (inactive) | > 100 µM (inactive) | > 100 µM (inactive) | > 100 µM (inactive) | > 100 µM (inactive) | > 100 µM (inactive) | > 100 µM (inactive) | > 100 µM (inactive) | > 100 µM (inactive) | > 100 µM (inactive) | > 100 µM (inactive) | > 100 µM (inactive) | > 100 µM (inactive) | > 100 µM (inactive) | > 100 µM (inactive) | > 100 µM (inactive) | > 100 µM (inactive) | > 100 µM (inactive) | > 100 µM (inactive) | 26.8 µM (inactive)
2 | Cc1cc(NC(=O)NC(=O)c2ccccc2N)ccc1Oc1ncc(Br)cn1 | < 0.01 µM (active) | 0.0163 µM (active) | < 0.01 µM (active) | 0.0535 µM (active) | 0.239 µM (active) | < 0.01 µM (active) | < 0.01 µM (active) | < 0.0103 µM (active) | < 0.01 µM (active) | < 0.01 µM (active) | 0.0125 µM (active) | < 0.0103 µM (active) | 0.0347 µM (active) | < 0.01 µM (active) | 0.0217 µM (active) | < 0.011 µM (active) | 0.11 µM (active) | < 0.0631 µM (active) | 0.0139 µM (active) | 0.0117 µM (active)
3 | COc1ccc(CCNC(=O)Cc2ccccc2CO)cc1OC | > 100 µM (inactive) | > 100 µM (inactive) | > 100 µM (inactive) | > 100 µM (inactive) | > 100 µM (inactive) | > 100 µM (inactive) | > 100 µM (inactive) | > 100 µM (inactive) | > 100 µM (inactive) | > 100 µM (inactive) | > 100 µM (inactive) | > 100 µM (inactive) | > 100 µM (inactive) | > 100 µM (inactive) | > 100 µM (inactive) | > 100 µM (inactive) | > 100 µM (inactive) | > 100 µM (inactive) | > 100 µM (inactive) | > 100 µM (inactive)
4 | CC(=O)NN/C=N/C(C#N)=C(\N)C#N | > 100 µM (inactive) | > 100 µM (inactive) | > 100 µM (inactive) | > 100 µM (inactive) | > 100 µM (inactive) | > 100 µM (inactive) | > 100 µM (inactive) | > 100 µM (inactive) | > 100 µM (inactive) | > 100 µM (inactive) | > 100 µM (inactive) | > 100 µM (inactive) | > 100 µM (inactive) | > 100 µM (inactive) | > 100 µM (inactive) | > 100 µM (inactive) | > 100 µM (inactive) | > 100 µM (inactive) | > 100 µM (inactive) | > 100 µM (inactive)
5 | COC(=O)C#Cc1ccc([N+](=O)[O-])cc1 | 1.91 µM (inactive) | 4.16 µM (inactive) | 1.75 µM (inactive) | 1.42 µM (inactive) | 1.89 µM (inactive) | 2.4 µM (inactive) | 4.24 µM (inactive) | 1.19 µM (inactive) | 2.09 µM (inactive) | 2.47 µM (inactive) | 1.62 µM (inactive) | 1.6 µM (inactive) | 2.69 µM (inactive) | 1.38 µM (inactive) | 2.55 µM (inactive) | 1.69 µM (inactive) | 1.41 µM (inactive) | 0.325 µM (active) | 0.995 µM (active) | 3.14 µM (inactive)
6 | O=C(O)C1OC(n2cc(F)c(=O)[nH]c2=O)CC1O (stereo not given) | 0.9 µM (active) | 3.35 µM (inactive) | 25.9 µM (inactive) | 18.6 µM (inactive) | > 100 µM (inactive) | 32.4 µM (inactive) | 5.47 µM (inactive) | > 86.5 µM (inactive) | > 39.1 µM (inactive) | > 86.1 µM (inactive) | 38.7 µM (inactive) | 63.8 µM (inactive) | 6.15 µM (inactive) | > 39.5 µM (inactive) | 17.5 µM (inactive) | 1.87 µM (inactive) | 2.46 µM (inactive) | 6.11 µM (inactive) | 8.87 µM (inactive) | 6.11 µM (inactive)
7 | Cc1ncc(-c2nnnn2-c2ccccc2)c(C(=O)O)n1 | > 100 µM (inactive) | > 100 µM (inactive) | > 100 µM (inactive) | > 100 µM (inactive) | > 100 µM (inactive) | > 100 µM (inactive) | > 100 µM (inactive) | > 100 µM (inactive) | > 100 µM (inactive) | > 100 µM (inactive) | > 100 µM (inactive) | > 100 µM (inactive) | > 100 µM (inactive) | > 100 µM (inactive) | > 100 µM (inactive) | > 100 µM (inactive) | > 100 µM (inactive) | > 100 µM (inactive) | > 100 µM (inactive) | > 100 µM (inactive)
8 | COc1cc(S(=O)(=O)Nc2ccc(-c3csc(/N=C\c4cccs4)n3)cc2)ccc1Cl | 16.5 µM (inactive) | 33.7 µM (inactive) | 32.4 µM (inactive) | 45.5 µM (inactive) | 49.9 µM (inactive) | 42.3 µM (inactive) | > 100 µM (inactive) | 34.3 µM (inactive) | 87.7 µM (inactive) | 42.9 µM (inactive) | 53.1 µM (inactive) | 57.1 µM (inactive) | 23.3 µM (inactive) | > 100 µM (inactive) | 87.5 µM (inactive) | 39.7 µM (inactive) | > 100 µM (inactive) | 15.7 µM (inactive) | 36.2 µM (inactive) | 30.3 µM (inactive)
9 | COc1ccc(OC)c(N(CN2C(=O)CCC2C(=O)O)C(C)=O)c1 (stereo not given) | > 100 µM (inactive) | > 100 µM (inactive) | > 100 µM (inactive) | > 100 µM (inactive) | > 100 µM (inactive) | > 100 µM (inactive) | > 100 µM (inactive) | > 100 µM (inactive) | > 100 µM (inactive) | > 100 µM (inactive) | > 100 µM (inactive) | > 100 µM (inactive) | > 100 µM (inactive) | > 100 µM (inactive) | > 100 µM (inactive) | > 100 µM (inactive) | > 100 µM (inactive) | > 100 µM (inactive) | > 100 µM (inactive) | > 100 µM (inactive)
